Results published in patent publication US20220096538A1, “PHARMACEUTICAL COMPOSITIONS AND METHODS FOR PREVENTION AND/OR TREATMENT OF INFLAMMATION” (priority 2020, published 2022).
Several values for one entry are separate records, joined by “and”; a condition that tells them apart may be missing. Identical values can stand only once.

Tests used:
[1] = cited from earlier work; for Approximate Equivalent Dose: equivalent to 0.75 mg dexamethasone
[2] = test system: LPS-GalN induced acute lung injury; test: LPS-GalN model, treatment 2 h post LPS-GalN: lung histopathological (ALI) score; settings: for Mean±SE ALI score: scale 0 to 4
[3] = test system: LPS-GalN induced liver injury; test: LPS-GalN model, treatment 2 h post LPS-GalN: liver histopathological score
LPS-GalN challenged mice = test: LPS-GalN model of fatal cytokine storm and sepsis, treatment 2 h post LPS-GalN: 24 h survival
[4] = low dose RJX, standard dose DEX, alone or combined, 2 h post LPS-GalN
[5] = DEX 0.1 mg/kg i.p. 2 h post LPS-GalN, n=6
[6] = DEX 0.6 mg/kg i.p. 2 h post LPS-GalN, n=6
[7] = DEX 6.0 mg/kg i.p. 2 h post LPS-GalN, n=6
[8] = RJX 0.7 ml/kg, DEX 0.6 mg/kg, alone or combined, 2 h post LPS-GalN

Question: With `C[C@]12CCC(=O)C=C1CC[C@@H]1[C@@H]2C(=O)C[C@@]2(C)[C@H]1CC[C@]2(O)C(=O)CO` [Cortisone] as the compound, how does the “Approximate Equivalent Dose” value [1] read?
Answer: 25 mg

Question: Which “Approximate Equivalent Dose” value [1] does the source give for `C[C@]12C=CC(=O)C=C1CC[C@@H]1[C@@H]2[C@@H](O)C[C@@]2(C)[C@H]1CC[C@]2(O)C(=O)CO` [Prednisolone] here?
Answer: 5 mg

Question: With `C[C@]12CCC(=O)C=C1CC[C@H]1[C@@H]3CC[C@](O)(C(=O)CO)[C@@]3(C)C[C@H](O)[C@@]12F` [Fludrocortisone] as the compound, how does the “Anticipated Half-life” value [1] read?
Answer: 12 to 26 h and 12 to 36 h

Question: Which “lung histopathological ALI score, Median” value ([2]; DEX 0.1 mg/kg) does the source give for `C[C@@H]1C[C@H]2[C@@H]3CCC4=CC(=O)C=C[C@]4(C)[C@@]3(F)[C@@H](O)C[C@]2(C)[C@@]1(O)C(=O)CO` [DEX, dexamethasone] here?
Answer: 3.5

Question: What about the “lung histopathological ALI scores, range” value ([2]; DEX 0.1 mg/kg) of the same compound?
Answer: 3-4

Question: And the “Mean±SE ALI score” value ([2]; DEX 0.1 mg/kg)?
Answer: 3.5±0.2

Question: And the “lung histopathological ALI score, Median” value ([2]; DEX 0.6 mg/kg)?
Answer: 3

Question: And the “lung histopathological ALI scores, range” value ([2]; DEX 0.6 mg/kg)?
Answer: 2-4

Question: And the “Mean±SE ALI score” value ([2]; DEX 0.6 mg/kg)?
Answer: 2.8±0.3

Question: What about the “lung histopathological ALI score, Median” value ([2]; DEX 6.0 mg/kg) of the same compound?
Answer: 2

Question: What about the “lung histopathological ALI scores, range” value ([2]; DEX 6.0 mg/kg) of the same compound?
Answer: 1-3

Question: And the “Mean±SE ALI score” value ([2]; DEX 6.0 mg/kg)?
Answer: 1.8±0.3

Question: And the “Lung Histopathological Score: ≥3 (severe damage or more), percent of mice” value [2, 4]?
Answer: 50%

Question: And the “ALI score of a representative mouse” value ([2]; single dose at 2 hours post-LPS-GalN, sacrificed at 24 hours, low dose RJX, high dose DEX or both)?
Answer: 2

Question: And the “histopathological liver damage score (Mean±SE)” value ([3]; DEX 0.1 mg/kg)?
Answer: 3.3±0.2

Question: What about the “histopathological liver damage score (Mean±SE)” value ([3]; DEX 0.6 mg/kg) of the same compound?
Answer: 2.7±0.2

Question: And the liver score median ([3]; DEX 0.6 mg/kg)?
Answer: 3

Question: And the “histopathological liver damage score (Mean±SE)” value ([3]; DEX 6.0 mg/kg)?
Answer: 2.3±0.2

Question: And the liver score median ([3]; DEX 6.0 mg/kg)?
Answer: 3

Question: What about the “liver histopathological scores, range” value ([3]; DEX (0.1)) of the same compound?
Answer: 3-4

Question: And the “Liver Histopathological Score: ≥3 (severe damage or more), percent of mice” value [3, 4]?
Answer: 50%

Question: And the Censored (LPS-GalN challenged mice; [5])?
Answer: 1

Question: And the Events (LPS-GalN challenged mice; [5])?
Answer: 5

Question: And the “Median (survival)” value (LPS-GalN challenged mice; [5])?
Answer: 5.1 h

Question: And the “Proportion (events; 24-h mortality)” value (LPS-GalN challenged mice; [5])?
Answer: 83.3%

Question: And the Censored (LPS-GalN challenged mice; [6])?
Answer: 3

Question: And the Events (LPS-GalN challenged mice; [6])?
Answer: 3

Question: What about the “Median (survival)” value (LPS-GalN challenged mice; [6]) of the same compound?
Answer: 15.0 h

Question: And the “Proportion (events; mortality)” value (LPS-GalN challenged mice; [6])?
Answer: 50.0%

Question: What about the Censored (LPS-GalN challenged mice; [7]) of the same compound?
Answer: 4

Question: And the Events (LPS-GalN challenged mice; [7])?
Answer: 2

Question: What about the “Proportion (events; mortality)” value (LPS-GalN challenged mice; [7]) of the same compound?
Answer: 33.3%

Question: And the Censored (LPS-GalN challenged mice; RJX 0.7 ml/kg (6-fold diluted 4.2 mL/kg), DEX 0.6 mg/kg, alone or combined, 2 h post LPS-GalN)?
Answer: 5

Question: What about the Events (LPS-GalN challenged mice; [8]) of the same compound?
Answer: 5

Question: And the “Median (survival)” value (LPS-GalN challenged mice; [8])?
Answer: 17.6 h

Question: And the “Proportion (events)” value (LPS-GalN challenged mice; [8])?
Answer: 50.0%

Question: With `C[C@]12CCC(=O)C=C1CC[C@@H]1[C@@H]2[C@@H](O)C[C@@]2(C)[C@H]1CC[C@]2(O)C(=O)CO` [Hydrocortisone] as the compound, how does the “Approximate Equivalent Dose” value [1] read?
Answer: 20 mg

Question: Which “Approximate Equivalent Dose” value [1] does the source give for `C[C@]12C=CC(=O)C=C1CC[C@H]1[C@@H]3C[C@@H](O)[C@](O)(C(=O)CO)[C@@]3(C)C[C@H](O)[C@@]12F` [Triamcinolone] here?
Answer: 4 mg
